Reference: patent US20240018158A1, “BRM TARGETING COMPOUNDS AND ASSOCIATED METHODS OF USE” (Prelude Therapeutics Incorporated, priority 2020, published 2024)

Target: SMARCA2 (Homo sapiens (Human), UniProt P51531)
Test: SMARCA2 HiBiT degradation assay in HEK293T cells
Assay type: cell-based
Settings: 293T HiBiT assay, 24 h; for DC50: read-out: DC50 (SM2-293T) SMARCA2 degradation potency; for Dmax: HEK-293T, read-out: Dmax % (SM2-293T) maximum SMARCA2 degradation within the concentrations tested
Experimental: HiBiT peptide knock-in of SMARCA2 in LgBiT expressing HEK293T cells was performed by CRISPR-mediated tagging system as described Promega. The homozygous HiBiT knock-in on c-terminus SMARCA2 was confirmed by sanger sequence. SMARCA2-HiBiT knock-in Hela monoclonal cell (CS302366) and SMARCA4-HiBiT knock-in Hela monoclonal cell (CS3023226) were purchased from Promega. The heterozygous HiBiT-knock-in was confirmed by sanger sequence in both SMARCA2-HiBiT and SMARCA4-HiBiT monoclonal cells. Compounds were prepared in a low dead volume plate at 3-fold serial dilution, and then transferred 25 nL/well into a 384 well plate (Corning: #356661) by Agilent Bravo liquid dispenser. SMARCA2-HiBiT monoclonal HEK293T cells were added at 5,000/well/25 uL into the compound containing 384 well plate. After 24 h incubation, 25 uL/well of Nano-Glo HiBiT Lytic detection buffer (Promega: N3050) was added to the wells and incubate for 10 min on a shaker, centrifuged for 5 min, and then RLU was detected on a microplate reader (Envision, PerkinElmer). The RLU ratio values are normalized to percent inhibition as follows: % inhibition=((HC−LC)−(compound−LC))/(HC−LC))*100, where HC=high control=mean signal of DMSO only; LC=low control=mean signal of 100% inhibition of RLU by 1 μM PRT1001728. An 11-point dose response curve for each compound will be generated using normalized % inhibition to determine IC50 values based on the equation: Y=Bottom+((Top-Bottom)/(1+((IC50/X)^Slope))), where Y is the % inhibition in the presence of X inhibitor concentration; Top=the top plateau of the curve; Bottom=the bottom plateau of the curve; Slope=Hill coefficient; DC50=concentration of compound with 50% degradation in relation to top/high control. DC50 values were determined by using XLfit Model 205.

Chain of SMARCA2 (P51531 whole entry): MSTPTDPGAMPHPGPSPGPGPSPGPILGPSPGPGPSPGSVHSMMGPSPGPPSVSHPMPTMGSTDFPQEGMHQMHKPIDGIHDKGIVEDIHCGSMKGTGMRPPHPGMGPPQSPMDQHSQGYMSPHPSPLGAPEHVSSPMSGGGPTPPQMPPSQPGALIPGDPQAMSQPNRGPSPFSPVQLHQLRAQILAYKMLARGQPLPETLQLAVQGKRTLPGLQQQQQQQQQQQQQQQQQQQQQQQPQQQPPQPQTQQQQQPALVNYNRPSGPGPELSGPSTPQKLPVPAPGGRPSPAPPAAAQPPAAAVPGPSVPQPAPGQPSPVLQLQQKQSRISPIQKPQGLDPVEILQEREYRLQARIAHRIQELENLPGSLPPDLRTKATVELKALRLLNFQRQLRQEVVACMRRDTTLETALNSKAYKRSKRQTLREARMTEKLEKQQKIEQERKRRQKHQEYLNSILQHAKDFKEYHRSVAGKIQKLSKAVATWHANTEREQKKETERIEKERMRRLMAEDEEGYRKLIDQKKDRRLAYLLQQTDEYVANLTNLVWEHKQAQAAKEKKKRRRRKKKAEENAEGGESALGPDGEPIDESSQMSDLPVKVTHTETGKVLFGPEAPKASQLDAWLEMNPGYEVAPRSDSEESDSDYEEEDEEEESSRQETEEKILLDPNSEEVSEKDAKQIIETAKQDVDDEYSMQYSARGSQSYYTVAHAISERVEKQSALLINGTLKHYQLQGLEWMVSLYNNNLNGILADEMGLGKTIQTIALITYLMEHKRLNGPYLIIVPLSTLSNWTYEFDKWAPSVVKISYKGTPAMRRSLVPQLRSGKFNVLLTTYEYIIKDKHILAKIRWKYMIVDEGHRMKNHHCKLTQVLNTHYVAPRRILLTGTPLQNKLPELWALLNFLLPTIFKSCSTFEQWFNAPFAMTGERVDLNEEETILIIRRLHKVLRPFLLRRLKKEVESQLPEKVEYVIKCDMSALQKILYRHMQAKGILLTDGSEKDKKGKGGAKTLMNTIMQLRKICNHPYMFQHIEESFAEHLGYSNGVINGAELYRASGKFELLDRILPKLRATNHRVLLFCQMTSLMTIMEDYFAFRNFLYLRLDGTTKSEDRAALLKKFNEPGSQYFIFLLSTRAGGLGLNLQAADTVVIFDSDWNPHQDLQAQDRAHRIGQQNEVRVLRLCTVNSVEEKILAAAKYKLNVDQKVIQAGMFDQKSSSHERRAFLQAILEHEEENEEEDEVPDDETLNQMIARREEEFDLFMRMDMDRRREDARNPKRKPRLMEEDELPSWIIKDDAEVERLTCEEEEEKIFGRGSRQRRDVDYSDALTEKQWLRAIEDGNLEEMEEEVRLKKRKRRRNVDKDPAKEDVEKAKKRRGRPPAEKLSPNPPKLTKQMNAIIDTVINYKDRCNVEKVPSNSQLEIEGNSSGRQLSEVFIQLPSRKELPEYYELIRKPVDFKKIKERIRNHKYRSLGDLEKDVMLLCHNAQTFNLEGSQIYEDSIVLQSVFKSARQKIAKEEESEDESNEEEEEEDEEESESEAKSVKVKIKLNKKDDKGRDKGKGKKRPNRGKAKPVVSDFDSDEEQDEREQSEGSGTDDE

Compound: Cc1ncsc1-c1ccc([C@H](C)NC(=O)[C@@H]2C[C@@H](O)CN2C(=O)[C@@H](c2cc(OCCN3CCC(N4CCN5c6cc(-c7ccccc7O)nnc6NC[C@H]5C4)C3)no2)C(C)C)cc1 (single isomer, unassigned) [Example 18]
- DC50: < 100 nM

Compound: Cc1ncsc1-c1ccc([C@H](C)NC(=O)[C@@H]2C[C@@H](O)CN2C(=O)[C@@H](c2cc(OCCN3CCC(N4CCN5c6cc(-c7ccccc7O)nnc6NC[C@H]5C4)C3)no2)C(C)C)cc1 (single isomer, unassigned) [Example 19]
- DC50: < 100 nM
- Dmax: > 75%

Compound: Cc1ncsc1-c1ccc([C@H](C)NC(=O)[C@@H]2C[C@@H](O)CN2C(=O)[C@@H](c2cc(OCC(=O)N3CCC(N4CCN5c6cc(-c7ccccc7O)nnc6NC[C@H]5C4)C(C)C3)no2)C(C)C)cc1 (single isomer, unassigned) [Example 31]
- DC50: < 100 nM
- Dmax: > 75%

Compound: Cc1ncsc1-c1ccc([C@H](C)NC(=O)[C@@H]2C[C@@H](O)CN2C(=O)[C@@H](c2cc(OCCN3CCC(N4CCN5c6cc(-c7ccccc7O)nnc6NC[C@H]5C4)C(C)C3)no2)C(C)C)cc1 (single isomer, unassigned) [Example 56]
- DC50: < 100 nM
- Dmax: > 75%

Compound: Cc1ncsc1-c1ccc([C@H](C)NC(=O)[C@@H]2C[C@@H](O)CN2C(=O)[C@@H](c2cc(OCCN3CCCC(CN4CCN5c6cc(-c7ccccc7O)nnc6NC[C@H]5C4)C3)no2)C(C)C)cc1 (single isomer, unassigned) [Example 85]
- DC50: < 100 nM
- Dmax: > 75%

Compound: Cc1ncsc1-c1ccc([C@H](C)NC(=O)[C@@H]2C[C@@H](O)CN2C(=O)[C@@H](c2cc(CCCN3CCCC(CN4CCN5c6cc(-c7ccccc7O)nnc6NC[C@H]5C4)C3)no2)C(C)C)cc1 (single isomer, unassigned) [Example 88]
- DC50: < 100 nM
- Dmax: > 75%

Compound: Cc1ncsc1-c1ccc([C@H](C)NC(=O)[C@@H]2C[C@@H](O)CN2C(=O)[C@@H](c2cc(CCCN3CCCC(CN4CCN5c6cc(-c7ccccc7O)nnc6NC[C@H]5C4)C3)no2)C(C)C)cc1 (single isomer, unassigned) [Example 89]
- DC50: < 100 nM

Compound: Cc1ncsc1-c1ccc([C@H](C)NC(=O)[C@@H]2C[C@@H](O)CN2C(=O)[C@H](NC(=O)OCCN2CCN3c4cc(-c5ccccc5O)nnc4NCC3C2)C(C)(C)C)cc1 (stereo partly drawn) [Example 7, 2-(2-(2-hydroxyphenyl)-5,6,6a,7,9,10-hexahydro-8H-pyrazino[1′,2′:4,5]pyrazino[2,3-c]pyridazin-8-yl)ethyl ((R)-1-((2S,4R)-4-hydroxy-2-(((S)-1-(4-(4-methylthiazol-5-yl)phenyl)ethyl)carbamoyl)pyrrolidin-1-yl)-3,3-dimethyl-1-oxobutan-2-yl)carbamate]
- DC50: 100 to 1000 nM
- Dmax: > 75%

Compound: Cc1ncsc1-c1ccc([C@H](C)NC(=O)[C@@H]2C[C@@H](O)CN2C(=O)[C@@H](NC(=O)CCN2CCC(CN3CCN4c5cc(-c6ccccc6O)nnc5NCC4C3)CC2)C(C)(C)C)cc1 (stereo partly drawn) [Example 8, (2S,4R)-4-hydroxy-1-((2S)-2-(3-(4-((2-(2-hydroxyphenyl)-5,6,6a,7,9,10-hexahydro-8H-pyrazino[1′,2′:4,5]pyrazino[2,3-c]pyridazin-8-yl)methyl)piperidin-1-yl)propanamido)-3,3-dimethylbutanoyl)-N-((S)-1-(4-(4-methylthiazol-5-yl)phenyl)ethyl)pyrrolidine-2-carboxamide]
- DC50: 100 to 1000 nM
- Dmax: > 75%

Compound: CC(=O)O[C@@H]1C[C@@H](C(=O)N[C@@H](C)c2ccc(-c3scnc3C)cc2)N(C(=O)[C@@H](c2cc(OCCN3CCN4c5cc(-c6ccccc6O)nnc5NCC4C3)no2)C(C)C)C1 (stereo partly drawn) [Example 9, (3R,5S)-1-((2R)-2-(3-(2-(2-(2-hydroxyphenyl)-5,6,6a,7,9,10-hexahydro-8H-pyrazino[1′,2′:4,5]pyrazino[2,3-c]pyridazin-8-yl)ethoxy)isoxazol-5-yl)-3-methylbutanoyl)-5-(((S)-1-(4-(4-methylthiazol-5-yl)phenyl)ethyl)carbamoyl)pyrrolidin-3-yl acetate]
- DC50: < 100 nM
- Dmax: > 75%

Compound: Cc1ncsc1-c1ccc([C@H](C)NC(=O)[C@@H]2C[C@@H](OC(=O)C(C)C)CN2C(=O)[C@@H](c2cc(OCCN3CCN4c5cc(-c6ccccc6O)nnc5NC[C@H]4C3)no2)C(C)C)cc1 [Example 10, (3R,5S)-1-((R)-2-(3-(2-((S)-2-(2-hydroxyphenyl)-5,6,6a,7,9,10-hexahydro-8H-pyrazino[1′,2′:4,5]pyrazino[2,3-c]pyridazin-8-yl)ethoxy)isoxazol-5-yl)-3-methylbutanoyl)-5-(((S)-1-(4-(4-methylthiazol-5-yl)phenyl)ethyl)carbamoyl)pyrrolidin-3-yl isobutyrate]
- DC50: < 100 nM
- Dmax: > 75%

Compound: Cc1ncsc1-c1ccc([C@H](C)NC(=O)[C@@H]2C[C@@H](O)CN2C(=O)[C@@H](NC(=O)CN2CCC(N3CCN4c5cc(-c6ccccc6O)nnc5NC[C@H]4C3)CC2)C(C)(C)C)cc1 [Example 11, (2S,4R)-4-hydroxy-1-((S)-2-(2-(4-((S)-2-(2-hydroxyphenyl)-5,6,6a,7,9,10-hexahydro-8H-pyrazino[1′,2′:4,5]pyrazino[2,3-c]pyridazin-8-yl)piperidin-1-yl)acetamido)-3,3-dimethylbutanoyl)-N-((S)-1-(4-(4-methylthiazol-5-yl)phenyl)ethyl)pyrrolidine-2-carboxamide]
- DC50: < 100 nM
- Dmax: > 75%

Compound: Cc1ncsc1-c1ccc([C@H](C)NC(=O)[C@@H]2C[C@@H](O)CN2C(=O)[C@@H](c2cc(OCCN3CC4CC(C3)C4N3CCN4c5cc(-c6ccccc6O)nnc5NCC4C3)no2)C(C)C)cc1 (stereo partly drawn) [Example 12, (2S,4R)-4-hydroxy-1-((2R)-2-(3-(2-(6-(2-(2-hydroxyphenyl)-5,6,6a,7,9,10-hexahydro-8H-pyrazino[1′,2′:4,5]pyrazino[2,3-c]pyridazin-8-yl)-3-azabicyclo[3.1.1]heptan-3-yl)ethoxy)isoxazol-5-yl)-3-methylbutanoyl)-N-((S)-1-(4-(4-methylthiazol-5-yl)phenyl)ethyl)pyrrolidine-2-carboxamide]
- DC50: 100 to 1000 nM
- Dmax: > 75%

Compound: Cc1ncsc1-c1ccc([C@H](C)NC(=O)[C@@H]2C[C@@H](O)CN2C(=O)[C@@H](c2cc(OCCN3CC4(CC(N5CCN6c7cc(-c8ccccc8O)nnc7NCC6C5)C4)C3)no2)C(C)C)cc1 (stereo partly drawn) [Example 13, (2S,4R)-4-hydroxy-1-((2R)-2-(3-(2-(6-(2-(2-hydroxyphenyl)-5,6,6a,7,9,10-hexahydro-8H-pyrazino[1′,2′:4,5]pyrazino[2,3-c]pyridazin-8-yl)-2-azaspiro[3.3]heptan-2-yl)ethoxy)isoxazol-5-yl)-3-methylbutanoyl)-N-((S)-1-(4-(4-methylthiazol-5-yl)phenyl)ethyl)pyrrolidine-2-carboxamide]
- DC50: < 100 nM
- Dmax: > 75%

Compound: Cc1ncsc1-c1ccc([C@H](C)NC(=O)[C@@H]2C[C@@H](O)CN2C(=O)[C@@H](c2cc(OCCN3CCC(N4CCN5c6cc(-c7ccccc7O)nnc6NC[C@H]5C4)C(F)C3)no2)C(C)C)cc1 (stereo partly drawn) [Example 14, (2S,4R)-1-((2R)-2-(3-(2-(3-fluoro-4-((S)-2-(2-hydroxyphenyl)-5,6,6a,7,9,10-hexahydro-8H-pyrazino[1′,2′:4,5]pyrazino[2,3-c]pyridazin-8-yl)piperidin-1-yl)ethoxy)isoxazol-5-yl)-3-methylbutanoyl)-4-hydroxy-N-((S)-1-(4-(4-methylthiazol-5-yl)phenyl)ethyl)pyrrolidine-2-carboxamide]
- DC50: < 100 nM
- Dmax: > 75%
